Data as given in patent publication US20020128295A1, “Use of pyridoxamine for the treatment and inhibition of obesity-related complications” (priority 2000, published 2002).
Marks after values point to notes of the source that are not given here.

Key:
[1] = test system: Zucker obese (fa/fa) rats; assay: Plasma glucose and total glycated hemoglobin (glycemic control); format: in vivo, rat; details: for Plasma glucose: mean ± SD, 7 animals
Procedure: (§1) All experiments were carried out in accordance with the regulations of the Institutional Animal Care and Use Committee of the University of South Carolina. Female Zucker obese (fa/fa) rats 6 weeks old, (n=14) and lean (LN) littermates (Fa/fa), also 6 weeks old (n=7) were purchased from Charles River Laboratories (Wilmington, Mass.). The fa/fa rats were divided randomly into two groups of 7 each, untreated fatty control (FC) and PM-treated (FPM) animals, the latter group receiving 2 g PM/L in the drinking water. […] All animals were housed individually with a light dark cycle of 12 hours each, and had free access to food and water. Blood was obtained from the tail vein, using heparinized microhematocrit tubes, and plasma recovered by centrifugation at 4° C. All assays for proteins and metabolites in plasma and urine were performed by microplate adaptations of current methods, using a Wallac Victor Model 1420 multilabel plate reader (Wallac, Inc., Gaithersburg, Md.). […] Plasma glucose was measured using the Trinder assay Kit (Sigma #315) and total glycated hemoglobin (GlcHb) by boronate affinity chromatography (Sigma kit #442-B). Total plasma triglycerides and cholesterol were analyzed by enzymatic, calorimetric, end-point assays using Sigma kits for triglycerides (#37, GPO Trinder) and total cholesterol (#352). Insulin was measured using a direct sandwich ELISA for rat insulin (ALPCO, Windham, N.H.). Plasma PM concentration was measured by reverse phase high performance liquid chromatography (RP-HPLC) with fluorescence detection, using 293/393 nm excitation and emission wavelengths.

[2] = test system: Zucker obese (fa/fa) rats; assay: Glycation (fructoselysine) of skin collagen by SIM-GC/MS; format: in vivo, rat; details: insoluble skin collagen
Procedure: (§2) All experiments were carried out in accordance with the regulations of the Institutional Animal Care and Use Committee of the University of South Carolina. Female Zucker obese (fa/fa) rats 6 weeks old, (n=14) and lean (LN) littermates (Fa/fa), also 6 weeks old (n=7) were purchased from Charles River Laboratories (Wilmington, Mass.). The fa/fa rats were divided randomly into two groups of 7 each, untreated fatty control (FC) and PM-treated (FPM) animals, the latter group receiving 2 g PM/L in the drinking water. […] All animals were housed individually with a light dark cycle of 12 hours each, and had free access to food and water. The insoluble fraction of skin collagen was prepared by scraping the skin with a single-edged razor blade to remove hair and adventitious tissue, followed by a series of extractions with 0.5 M NaCl, 0.5 M acetic acid and chloroform/methanol (2:1 v/v), as described previously (Dyer et al., J. Clin. Invest. 91:2463-2469 (1993)). Fructoselysine (FL), a measure of glycation of collagen, and CML, CEL, MDA-lysine and HNE-lysine were assayed by isotope dilution, selected ion monitoring gas chromatography—mass spectrometry (SIM-GC/MS), and pentosidine by RP-HPLC, all as described previously (Requena et al., Biochem. J. 322:317-325 (1997)). Levels of AGEs/ALEs were expressed relative to the FL content of the collagen in order to correct for differences in mean age of the protein (see Table 1 and Discussion, below). Collagen fluorescence (Ex=370 nm, Em=440 nm) was measured after solubilization with pepsin (20 μg/mL in 0.5 M acetic, 24 hr at 37° C.), and was normalized to the hydroxyproline content of the collagen, measured as described by Stegemann and Stalder (Clin. Chim. Acta 18:267-273 (1967)).

[3] = test system: Zucker obese (fa/fa) rats; assay: Fasting plasma insulin (ELISA); format: in vivo, rat
Procedure: as §1, with “Blood was obtained from the tail vein, using heparinized microhematocrit tubes, and plasma recovered by centrifugation at 4° C.” left out, “Plasma PM concentration was measured by reverse phase high performance liquid chromatography (RP-HPLC) with fluorescence detection, using 293/393 nm excitation and emission wavelengths.” left out

[4] = test system: Zucker obese (fa/fa) rats; assay: Dyslipidemia: plasma triglycerides and total cholesterol; format: in vivo, rat
Procedure: as §1

[5] = test system: Zucker obese (fa/fa) rats; assay: Renal function: urinary protein, albumin, plasma creatinine, urine volume; format: in vivo, rat
Procedure: All experiments were carried out in accordance with the regulations of the Institutional Animal Care and Use Committee of the University of South Carolina. Female Zucker obese (fa/fa) rats 6 weeks old, (n=14) and lean (LN) littermates (Fa/fa), also 6 weeks old (n=7) were purchased from Charles River Laboratories (Wilmington, Mass.). The fa/fa rats were divided randomly into two groups of 7 each, untreated fatty control (FC) and PM-treated (FPM) animals, the latter group receiving 2 g PM/L in the drinking water. […] All animals were housed individually with a light dark cycle of 12 hours each, and had free access to food and water. Progression of renal disease was assessed by measurements of plasma creatinine and urinary albumin and total urinary protein. Plasma creatinine concentration was measured by the Jaffe picric acid procedure, using Sigma kit #555-A. For urine collections, rats were housed in metabolic rat cages for 24 hr with free access to food and water. Several drops of toluene were added to the urine collection beaker to inhibit microbial growth. Urinary albumin was quantified by an ELISA assay. Rabbit antiserum to rat albumin and horseradish peroxidase (HRP)-conjugated goat anti-rabbit IgG were purchased from ICN Biomedical Research Products, Costa Mesa, Calif. Briefly, wells were coated with 50 ng of rat albumin (Sigma, St. Louis) in 0.1 M sodium carbonate buffer, pH 10.4, overnight at 4° C. […] After washing, horseradish peroxidase-conjugated goat anti-rabbit IgG (200 μL) was applied for 1 h at 25° C. with shaking, and the plate was developed with 200 μL of ABTS-reagent (2,2′-azino-bis(3-ethylbenzthiazoline-6-sulfonic acid) for 45 min at room temperature. Absorbance was measured at 405 nm. Total urinary protein was measured using the Sigma Microprotein-PR Kit. Based on preliminary experiments in which known amounts of PM were added to urine, PM increased the final absorbance readings in the protein assay, so that a correction (<10%) was applied for the PM content of the urine.

[6] = test system: Zucker obese (fa/fa) rats; assay: Systolic blood pressure by tail cuff plethysmography; format: in vivo, rat; details: initial 125-130 mm Hg at week 5; FC rose to 165 mm Hg
Procedure: (§3) All experiments were carried out in accordance with the regulations of the Institutional Animal Care and Use Committee of the University of South Carolina. Female Zucker obese (fa/fa) rats 6 weeks old, (n=14) and lean (LN) littermates (Fa/fa), also 6 weeks old (n=7) were purchased from Charles River Laboratories (Wilmington, Mass.). The fa/fa rats were divided randomly into two groups of 7 each, untreated fatty control (FC) and PM-treated (FPM) animals, the latter group receiving 2 g PM/L in the drinking water. […] All animals were housed individually with a light dark cycle of 12 hours each, and had free access to food and water. Blood pressure measurements were initiated at week 5 in the experiment after acclimating the animals to the apparatus, and were carried out the week following blood and urine collection. Measurements were made by tail cuff plethysmography using a Kent Scientific XBP instrument.

[7] = test system: Zucker obese (fa/fa) rats; assay: Vascular changes in aorta and coronary arteries at necropsy; format: in vivo, rat
Procedure: All experiments were carried out in accordance with the regulations of the Institutional Animal Care and Use Committee of the University of South Carolina. Female Zucker obese (fa/fa) rats 6 weeks old, (n=14) and lean (LN) littermates (Fa/fa), also 6 weeks old (n=7) were purchased from Charles River Laboratories (Wilmington, Mass.). The fa/fa rats were divided randomly into two groups of 7 each, untreated fatty control (FC) and PM-treated (FPM) animals, the latter group receiving 2 g PM/L in the drinking water. […] All animals were housed individually with a light dark cycle of 12 hours each, and had free access to food and water. Blood was drawn from anaesthetized (isoflurane) rats by heart puncture and transferred into heparinized vacutainer tubes on ice. Plasma was separated from whole blood within 30 min by centrifugation in a refrigerated benchtop centrifuge; aliquots of plasma were stored at −70° C. until time of analysis. Rats were then killed by over-anesthetization, and liver and kidneys were removed, and both organs rinsed in phosphate buffered saline, and weighed. One kidney was cut in half transversely, and one half was removed for fixation (buffered formalin) for light microscopy. The remaining kidney and liver samples were frozen at −70° C. […]

[8] = test system: Zucker obese (fa/fa) rats; assay: Chemical modifications (AGE/ALEs) and fluorescence in skin collagen; format: in vivo, rat
Procedure: as §2

[9] = test system: Sprague-Dawley and Zucker rats; details: rat, in vivo
Procedure: as §3, with “water.” for “water. Blood pressure measurements were initiated at week 5 in the experiment after acclimating the animals to the apparatus, and were carried out the week following blood and urine collection. Measurements were made by tail cuff plethysmography using a Kent Scientific XBP instrument.”

[10] = test system: streptozotocin (STZ)-induced diabetic rat; details: earlier study, cited from earlier work
[11] = test system: advanced lipoxidation end-products (ALEs); details: lipid peroxidation reactions in vitro; cited from earlier work
[12] = Week 0, 2 g PM/L in drinking water
[13] = Week 16, 2 g PM/L in drinking water
[14] = Week 32, 2 g PM/L in drinking water

Cc1ncc(CO)c(CN)c1O [PM, Pyridoxamine]
Effect on glycemia ([1]; 32 week experiment): no effect on glycemia
Glycated Hemoglobin [1, 12]: 6.8 ± 0.5%
Plasma glucose [1, 12]: 6.8 ± 0.5 mM
Glycated Hemoglobin [1, 13]: 6.5 ± 0.3%
Plasma glucose [1, 13]: 6.9 ± 0.6 mM
Glycated Hemoglobin [1, 14]: 6.8 ± 0.3%
Plasma glucose [1, 14]: 6.8 ± 0.5 mM
Glycation of Skin Collagen FL ([2]; Week 0): 3.5 ± 0.2 mmol/mol lysine
Glycation of Skin Collagen FL ([2]; Week 11): 3.0 ± 0.1 mmol/mol lysine
Glycation of Skin Collagen FL ([2]; Week 32): 2.3 ± 0.3 mmol/mol lysine
Fasting plasma insulin ([3]; 32 weeks): 7.3 ± 0.6 µg/L
Effect on insulin resistance ([3]; fa/fa animals): did not significantly affect insulin resistance
Plasma cholesterol ([4]; FC rats approximately 250 mg/dL): ~150 mg/dL
Plasma triglycerides relative to the level in LN animals ([4]; after 10 weeks): about three
Plasma triglycerides relative to the values observed in FC animals ([4]; after 10 weeks): less than 50%
Effect on dyslipidemia, both triglycerides and cholesterol ([4]; fa/fa rat): significantly reduced dyslipidemia
Plasma cholesterol, higher than in LN animals ([4]; rat, in vivo): ~50%
Difference in urine volume between FC and FPM animals ([5]; at any point in the study): no significant differences in urine volume
Urinary volume ([5]; end of the study): 27.0 mL/day
Effect on development of proteinuria ([5]; fa/fa rat, confirmed by plasma creatinine): impressive protection against development of proteinuria
Systolic blood pressure course [6]: remained at initial values
Aorta compared with LN animals [7]: indistinguishable from those of LN animals in all but one animal
Changes in the aortic or coronary vasculature [7]: minimal changes
HNE-lysine detectability in skin collagen ([8]; 8 months): not detectable
MDA-lysine trace amounts in skin collagen ([8]; 8 months, in 3 of 7 animals): < 2 μmol/mol FL
MDA-Lys in skin collagen ([8]; Week 32): Trace
Fluorescence of skin collagen ([8]; Week 32, necropsy samples, Ex=370 nm, Em=440 nm): 0.05 ± 0.02 Arbitrary Units/mol FL
Number of samples in which MDA-lysine was measurable ([8]; Week 32, of 7 animals): (3/7)^d
Effect on increase in CML and CEL in skin collagen ([8]; fa/fa rats): inhibited the increase in CML and CEL
Effect on increase in Maillard-type collagen fluorescence ([8]; necropsy samples, FC 2-fold higher than LN): prevented this increase
Effect on increase in pentosidine in skin collagen ([8]; through week 11): effective in limiting the increase in pentosidine
MDA-lysine detectability in skin collagen ([8]; until 8 months): no MDA-lysine was detectable
Significance of differences in pentosidine between FC and FPM rats ([8]; week 32, p=0.07): marginal
Tolerability of the dose [9]: well tolerated
Albuminuria and plasma creatinine ([10]; STZ-induced diabetic rat): marked reduction in albuminuria and plasma creatinine
Development of renal disease ([10]; STZ-induced diabetic rat): significantly inhibited the development of renal disease
Effect on glycemic control ([10]; STZ-induced diabetic rat): no effect on glycemic control
Reduction in hyperlipidemia ([10]; STZ-rat): > 50%
Inhibition of formation of advanced lipoxidation end-products (ALEs) [11]: potent inhibitor
